Source: ChEMBL document CHEMBL1151287, “Discorhabdin W, the first dimeric discorhabdin” (J Nat Prod, 2005)

Test system: P388
Assay: Cytotoxicity against mouse P388 cells
Type: functional, cell-based

Structure (SMILES) | IC50
O=C1C=C[C@@]23C[C@@H](NC4=C2C2=NCCc5c[nH]c(c52)C4=O)SC3=C1 | 510 nM
O=C1C=C2S[C@H]3C[C@]2(C=C1Br)C1=C(N3)C(=O)c2[nH]cc3c2C1=NCC3 [DISCORHABDIN B] | 87 nM
O=C1C2=C3C4=[N+](CCc5c[nH]c1c54)[C@H]1C[C@@]34C[C@@H](N2)SC4=CC1=O [DISCORHABDIN D] | 1600 nM
O=C1C2=C3C4=[N+](CCc5c[nH]c1c54)[C@@H]1C(=O)C=C4S[C@@H](C[C@@]43[C@H]1O)N2 [DISCORHABDIN L] | 1100 nM
O=C1C=C(SSC2=CC(=O)C(Br)=C[C@]23C=CNC2=C3C3=NCCc4c[nH]c(c43)C2=O)[C@@]2(C=CNC3=C2C2=NCCc4c[nH]c(c42)C3=O)C=C1Br [DISCORHABDIN W] | 84 nM
